Experimental data as given in ChEMBL document CHEMBL3813632, “Thiazolo[3,2-a]benzimidazol-3(2H)-one derivatives: Structure-activity relationships of selective nucleotide pyrophosphatase/phosphodiesterase1 (NPP1) inhibitors” (Bioorg Med Chem, 2016).
Activity calls are given as the source filed them. The rule behind the calls is not given here.

How the values were obtained:
Homo sapiens [1] = organism: Homo sapiens; assay: Selectivity ratio of Ki for human recombinant Ecto-5'-nucleotidase to Ki for human recombinant NPP1
Homo sapiens [2] = organism: Homo sapiens; assay: Selectivity ratio of Ki for human recombinant soluble NTPDase1 to Ki for human recombinant NPP1
[3] = Retention time of the compound in MgCl2/CaCl2/CHES buffer at pH 9 by LC-MS analysis; assay type: physicochemical
[4] = biological target: T1, Ectonucleoside triphosphate diphosphohydrolase 2 (Homo sapiens) (UniProt Q9Y5L3); assay: Inhibition of human recombinant NTPDase2 expressed in CHO cells using ATP as substrate at 10 to 1000 uM preincubated with substrate followed by protein addition and subsequent incubation for 30 mins by capillary electrophoresis
T1 sequence (whole entry): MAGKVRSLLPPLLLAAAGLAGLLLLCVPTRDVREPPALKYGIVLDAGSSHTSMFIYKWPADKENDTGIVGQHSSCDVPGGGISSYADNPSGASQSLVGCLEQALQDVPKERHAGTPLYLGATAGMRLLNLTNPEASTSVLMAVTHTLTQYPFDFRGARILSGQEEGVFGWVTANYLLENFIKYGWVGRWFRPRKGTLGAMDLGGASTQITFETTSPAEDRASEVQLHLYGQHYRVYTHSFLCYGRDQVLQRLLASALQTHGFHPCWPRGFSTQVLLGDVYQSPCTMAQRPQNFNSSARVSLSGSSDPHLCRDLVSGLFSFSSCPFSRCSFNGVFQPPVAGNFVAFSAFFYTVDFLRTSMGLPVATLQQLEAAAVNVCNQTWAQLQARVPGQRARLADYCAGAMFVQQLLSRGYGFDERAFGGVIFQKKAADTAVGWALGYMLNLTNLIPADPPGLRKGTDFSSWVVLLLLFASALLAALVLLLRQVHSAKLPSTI

[5] = biological target: T2, Ectonucleotide pyrophosphatase/phosphodiesterase family member 1 (Homo sapiens) (UniProt P22413); assay: Uncompetitive inhibition of human recombinant NPP1 expressed in insect SF9 cells using ATP as substrate up to 2.8 uM preincubated with substrate followed by protein addition and subsequent incubation for 30 mins by Hanes-Woolf plot analysis
T2 sequence (whole entry): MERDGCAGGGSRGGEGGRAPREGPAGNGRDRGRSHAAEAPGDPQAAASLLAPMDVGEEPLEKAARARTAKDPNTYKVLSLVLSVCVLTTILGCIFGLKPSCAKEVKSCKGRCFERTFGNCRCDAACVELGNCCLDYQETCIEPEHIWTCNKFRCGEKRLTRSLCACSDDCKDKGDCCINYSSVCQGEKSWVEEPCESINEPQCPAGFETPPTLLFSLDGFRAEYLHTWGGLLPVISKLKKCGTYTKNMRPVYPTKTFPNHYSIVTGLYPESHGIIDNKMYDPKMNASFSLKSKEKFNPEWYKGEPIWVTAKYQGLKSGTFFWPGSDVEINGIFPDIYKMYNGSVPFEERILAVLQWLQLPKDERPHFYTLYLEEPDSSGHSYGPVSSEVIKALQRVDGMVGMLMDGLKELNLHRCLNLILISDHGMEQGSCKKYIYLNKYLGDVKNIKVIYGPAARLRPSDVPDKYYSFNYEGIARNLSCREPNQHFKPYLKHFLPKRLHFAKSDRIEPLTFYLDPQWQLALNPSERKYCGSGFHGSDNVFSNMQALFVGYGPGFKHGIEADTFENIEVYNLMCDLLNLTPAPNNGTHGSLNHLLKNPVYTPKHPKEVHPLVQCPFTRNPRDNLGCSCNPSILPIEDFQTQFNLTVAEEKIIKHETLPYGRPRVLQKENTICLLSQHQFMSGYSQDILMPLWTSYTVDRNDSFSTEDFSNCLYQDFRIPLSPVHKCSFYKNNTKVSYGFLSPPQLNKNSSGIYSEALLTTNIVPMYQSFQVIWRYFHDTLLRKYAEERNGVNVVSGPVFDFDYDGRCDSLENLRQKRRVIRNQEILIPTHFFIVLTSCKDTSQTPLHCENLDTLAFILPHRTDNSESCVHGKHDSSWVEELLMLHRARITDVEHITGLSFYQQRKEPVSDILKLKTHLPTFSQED

[6] = biological target: T3, Alkaline phosphatase, tissue-nonspecific isozyme (Homo sapiens) (UniProt P05186); assay: Inhibition of human recombinant TNAP expressed in NS0 cells using p-nitrophenyl phosphate as substrate at 10 to 1000 uM preincubated with substrate followed by protein addition and subsequent incubation for 30 mins by colorimetric analysis
T3 sequence (whole entry): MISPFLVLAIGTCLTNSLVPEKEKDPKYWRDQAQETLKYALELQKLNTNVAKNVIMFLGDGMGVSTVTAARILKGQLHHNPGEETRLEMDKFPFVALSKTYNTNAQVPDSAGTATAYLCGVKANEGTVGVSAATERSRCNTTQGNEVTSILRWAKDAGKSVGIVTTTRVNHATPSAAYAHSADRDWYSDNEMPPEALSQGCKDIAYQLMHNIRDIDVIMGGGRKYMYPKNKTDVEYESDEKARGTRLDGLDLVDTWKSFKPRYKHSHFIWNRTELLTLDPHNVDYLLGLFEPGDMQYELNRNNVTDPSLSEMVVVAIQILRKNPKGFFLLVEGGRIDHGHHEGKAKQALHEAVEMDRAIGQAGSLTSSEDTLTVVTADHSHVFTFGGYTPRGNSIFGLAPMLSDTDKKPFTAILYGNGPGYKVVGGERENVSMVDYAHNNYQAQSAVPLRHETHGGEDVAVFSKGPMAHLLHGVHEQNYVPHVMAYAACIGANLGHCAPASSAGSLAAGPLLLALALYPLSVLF

[7] = biological target: T4, Ectonucleoside triphosphate diphosphohydrolase 1 (Homo sapiens) (UniProt P49961); assay: Inhibition of human recombinant soluble NTPDase1 expressed in CHO cells using ATP as substrate at 10 to 1000 uM preincubated with substrate followed by protein addition and subsequent incubation for 30 mins by capillary electrophoresis
T4 sequence (whole entry): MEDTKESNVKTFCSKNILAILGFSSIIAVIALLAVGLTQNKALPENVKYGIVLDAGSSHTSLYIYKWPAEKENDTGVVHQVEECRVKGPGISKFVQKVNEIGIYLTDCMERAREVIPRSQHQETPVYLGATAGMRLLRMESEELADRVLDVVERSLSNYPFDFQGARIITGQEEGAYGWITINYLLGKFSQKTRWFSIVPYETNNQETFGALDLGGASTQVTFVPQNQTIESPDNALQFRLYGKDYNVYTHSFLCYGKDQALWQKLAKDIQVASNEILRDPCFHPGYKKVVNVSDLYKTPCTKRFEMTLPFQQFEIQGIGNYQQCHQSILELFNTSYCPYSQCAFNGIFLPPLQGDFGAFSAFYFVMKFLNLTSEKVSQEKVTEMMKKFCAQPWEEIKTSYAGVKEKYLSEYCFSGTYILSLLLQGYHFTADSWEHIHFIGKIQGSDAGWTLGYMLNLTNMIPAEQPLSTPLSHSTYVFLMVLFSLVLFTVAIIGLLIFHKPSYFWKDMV

Ratio Ki (Homo sapiens [1]): 1000
Ratio Ki (Homo sapiens [2]): 1000
Retention_time [3]: 8.2 min
inhibition [4]: inactive
inhibition [5]: Active
inhibition [6]: inactive
inhibition [7]: inactive
Structure (SMILES): O=c1/c(=C/c2ccc(I)o2)sc2nc3ccccc3n12
